{
  "source": "paper PMC3670040",
  "about": "“Structure of Lipid Kinase p110β/p85β Elucidates an Unusual SH2-Domain-Mediated Inhibitory Mechanism” (Molecular Cell, 2011)",
  "tested_on": "p110β/p85β complexes",
  "assay": "Transcreener ADP formation, soluble monomeric diC8-PIP2 substrate",
  "type": "biochemical, mouse",
  "conditions": "p110β/p85-niSH2 and p110β/p85-icSH2 complexes",
  "procedure": "Figure 1 Inhibition of p110β by p85-Type Regulatory Subunits and Activation of the Complexes by RTK Phosphopeptide (A) Domain organization of p110β and the regulatory subunits p85α, p85β, and p55γ. The color scheme for the domains is used for all figures, unless otherwise stated. […] The inhibition is released upon addition of the 10 μM PDGFR pY2. […] The y axis is expressed as a change in fluorescence polarization (ΔmP), which is obtained by subtracting the observed polarization for the construct at a given enzyme concentration from the maximum fluorescence polarization for that construct. […]\nThe lipid kinase activity was determined using the Transcreener ADP2 FP Assay (BellBrook Labs, Madison, WI) according to manufacturer‟s specifications. This non-radioactive assay measures activity by quantitating the amount of ADP formed. The ADP formed by PI3K competes with fluorescent ADP tracer for binding to an anti-ADP antibody, thereby decreasing fluorescence polarization. Because of the competitive nature of this assay, the change in fluorescence polarization signal is not a linear function of enzyme activity, and a convenient measure of enzyme activity is the EC50, or the concentration of enzyme necessary to give half-maximal inhibition of labeled ADP binding to the antibody, for a given concentration of substrate and a fixed time of reaction at initial rate. […]",
  "note": "Square brackets hold non-standard residues; d marks the D form. Ends that are not written are not given here. pY = N[C@@H](Cc1ccc(OP(=O)(O)O)cc1)C(=O)O",
  "data": [
    {"substance": "ESDGG[pY]MDMSKDESID[pY]VPMLDMKGDIKYADIE [pY2, bis-phosphopeptide (PDGFR 735–767, with pY740 and pY751)]", "values": [
      {"measurement": "activity with soluble lipid substrate in the presence of pY2", "value": "enhanced"}
    ]}
  ]
}
